Measured values reported in PubChem BioAssay AID248 (DTP/NCI, 2004).
Several values for one entry are separate records, joined by “and”; a condition that tells them apart may be missing. Equal values may be shown once. Inconclusive results and toxic doses are left out. Cut-off read from the data, not from the text of the source: active = T/C of 150% or more; inactive = T/C below 125%.

System: L1210 leukemia ip in BDF1 mice, survival T/C
Assay: NCI In Vivo Anticancer Drug Screen. Data for tumor model L1210 Leukemia (intraperitoneal) in B6D2F1 (BDF1) mice
Conditions: endpoint: mean survival time, higher = longer survival
How it was run: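 Tumor cells were implanted, animals were treated, and survival was followed. The result divides the treated measurement by the vehicle-control measurement.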

[1] = dose: 50.0 mg/kg/injection, schedule: Q01DX009 (ip), vehicle: saline
[2] = dose: 100.0 mg/kg/injection, schedule: Q01DX009 (ip), vehicle: saline
[3] = dose: 100.0 mg/kg/injection, schedule: Q04DX002 (ip), vehicle: saline with Tween-80
[4] = dose: 200.0 mg/kg/injection, schedule: Q04DX002 (ip), vehicle: saline with Tween-80
[5] = dose: 400.0 mg/kg/injection, schedule: Q04DX002 (ip), vehicle: saline with Tween-80
[6] = dose: 100.0 mg/kg/injection, schedule: Q01DX001 (ip), vehicle: carboxymethylcellulose (CMC)
[7] = dose: 200.0 mg/kg/injection, schedule: Q01DX001 (ip), vehicle: carboxymethylcellulose (CMC)
[8] = dose: 400.0 mg/kg/injection, schedule: Q01DX001 (ip), vehicle: carboxymethylcellulose (CMC)
[9] = dose: 100.0 mg/kg/injection, schedule: Q01DX001 (ip), vehicle: Klucel (hydroxypropylcellulose) (HPC)
[10] = dose: 100.0 mg/kg/injection, schedule: Q04DX003 (ip), vehicle: Klucel (hydroxypropylcellulose) (HPC)
[11] = dose: 200.0 mg/kg/injection, schedule: Q01DX001 (ip), vehicle: Klucel (hydroxypropylcellulose) (HPC)
[12] = dose: 200.0 mg/kg/injection, schedule: Q04DX003 (ip), vehicle: Klucel (hydroxypropylcellulose) (HPC)
[13] = dose: 400.0 mg/kg/injection, schedule: Q01DX001 (ip), vehicle: Klucel (hydroxypropylcellulose) (HPC)
[14] = dose: 400.0 mg/kg/injection, schedule: Q04DX003 (ip), vehicle: Klucel (hydroxypropylcellulose) (HPC)
[15] = dose: 100.0 mg/kg/injection, schedule: Q01DX009 (ip), vehicle: Klucel (hydroxypropylcellulose) (HPC)
[16] = dose: 200.0 mg/kg/injection, schedule: Q01DX009 (ip), vehicle: Klucel (hydroxypropylcellulose) (HPC)
[17] = dose: 400.0 mg/kg/injection, schedule: Q01DX009 (ip), vehicle: Klucel (hydroxypropylcellulose) (HPC)
[18] = dose: 12.5 mg/kg/injection, schedule: Q04DX003 (ip), vehicle: saline

Measured: T/C

Cc1ccc(S(=O)(=O)NC(=O)Nc2cc(Cl)c(Cl)cc2C)cc1
inactive: [1] 100 % of control and 108 % of control | dose: 100.0 mg/kg/injection, schedule: Q01DX009 (ip), vehicle: saline with Tween-80 94 % of control and 91 % of control | [2] 97 % of control and 88 % of control | [3] 100 % of control and 110 % of control | dose: 200.0 mg/kg/injection, schedule: Q01DX009 (ip), vehicle: saline with Tween-80 93 % of control | dose: 200.0 mg/kg/injection, schedule: Q01DX009 (ip), vehicle: saline 94 % of control and 86 % of control | [4] 93 % of control and 96 % of control | dose: 400.0 mg/kg/injection, schedule: Q01DX009 (ip), vehicle: saline 93 % of control | [5] 100 % of control and 104 % of control

c1ccc2c3c([nH]c2c1)CCC3
inactive: [6] 93 % of control | [7] 98 % of control | [8] 102 % of control

COC(=O)CN(c1c(C)cc(C)c(N)c1C)S(=O)(=O)c1ccccc1
inactive: [9] 95 % of control | [10] 96 % of control | [11] 103 % of control | [12] 100 % of control | [13] 97 % of control | [14] 107 % of control

CN1CCOc2ccccc2OCCOCCOc2ccccc2OCC1
inactive: [9] 100 % of control | [11] 96 % of control | [13] 102 % of control

CC(=O)Nc1cc([N+](=O)[O-])ccc1CC(O)c1ccccc1 (stereo unspecified)
inactive: [15] 109 % of control | [10] 97 % of control | [16] 111 % of control | [12] 97 % of control | [17] 94 % of control | [14] 100 % of control

C(=C\c1ccccc1)/Cc1ccccc1
inactive: [15] 97 % of control | [10] 101 % of control | [16] 95 % of control | [12] 111 % of control | [17] 103 % of control | [14] 92 % of control

O=C(NC(CO)CCCO)c1ccc([N+](=O)[O-])cc1 (stereo unspecified)
inactive: [10] 108 % of control | [12] 86 % of control | [14] 96 % of control

CN(C)CCC(c1ccccc1)c1cc(Cl)ccn1 (stereo unspecified)
inactive: dose: 6.25 mg/kg/injection, schedule: Q01DX009 (ip), vehicle: saline 95 % of control | dose: 12.5 mg/kg/injection, schedule: Q01DX009 (ip), vehicle: saline 97 % of control | [18] 106 % of control | dose: 25.0 mg/kg/injection, schedule: Q01DX009 (ip), vehicle: saline 95 % of control | dose: 25.0 mg/kg/injection, schedule: Q04DX003 (ip), vehicle: saline 103 % of control | [1] 97 % of control | dose: 50.0 mg/kg/injection, schedule: Q04DX003 (ip), vehicle: saline 103 % of control | [2] 100 % of control | dose: 100.0 mg/kg/injection, schedule: Q04DX003 (ip), vehicle: saline 106 % of control

CCOC(=O)c1ccc(NC(=O)Nc2cc(OC)c(Cl)cc2OC)cc1
inactive: dose: 100.0 mg/kg/injection, schedule: Q01DX001 (ip), vehicle: saline with Tween-80 93 % of control | [3] 97 % of control | dose: 200.0 mg/kg/injection, schedule: Q01DX001 (ip), vehicle: saline with Tween-80 101 % of control | [4] 100 % of control | dose: 400.0 mg/kg/injection, schedule: Q01DX001 (ip), vehicle: saline with Tween-80 88 % of control | [5] 97 % of control

C=CC1(C)CCC(=O)N1 (stereo unspecified)
inactive: dose: 75.0 mg/kg/injection, schedule: Q04DX003 (ip), vehicle: other 104 % of control | dose: 150.0 mg/kg/injection, schedule: Q04DX003 (ip), vehicle: other 98 % of control | dose: 300.0 mg/kg/injection, schedule: Q04DX003 (ip), vehicle: other 98 % of control

O=C(Nc1ccc(Cl)cc1)Oc1ccc(C2CCCCC2)cc1
inactive: dose: 100.0 mg/kg/injection, schedule: Q04DX002 (ip), vehicle: Klucel (hydroxypropylcellulose) (HPC) 100 % of control | dose: 200.0 mg/kg/injection, schedule: Q04DX002 (ip), vehicle: Klucel (hydroxypropylcellulose) (HPC) 107 % of control | dose: 400.0 mg/kg/injection, schedule: Q04DX002 (ip), vehicle: Klucel (hydroxypropylcellulose) (HPC) 110 % of control

FC(F)(F)c1ccc2c(c1)N(CCCN1CCN(CCC3OCCCO3)CC1)c1ccccc1S2
inactive: dose: 0.78 mg/kg/injection, schedule: Q04DX003 (ip), vehicle: saline 102 % of control | dose: 1.56 mg/kg/injection, schedule: Q04DX003 (ip), vehicle: saline 101 % of control | dose: 3.12 mg/kg/injection, schedule: Q04DX003 (ip), vehicle: saline 102 % of control | dose: 6.25 mg/kg/injection, schedule: Q04DX003 (ip), vehicle: saline 96 % of control | [18] 112 % of control

CCN1C(=O)CC(SC2CC(=O)N(CC)C2=O)C1=O (stereo unspecified)
inactive: [6] 100 % of control | [7] 94 % of control | [8] 94 % of control

NC(N)=N/N=C/c1ccc(O)c(C(=O)O)c1
inactive: dose: 15.0 mg/kg/injection, schedule: Q01DX Z (ip), vehicle: methylcellulose (MC) 92 % of control | dose: 30.0 mg/kg/injection, schedule: Q01DX Z (ip), vehicle: methylcellulose (MC) 94 % of control | dose: 60.0 mg/kg/injection, schedule: Q01DX Z (ip), vehicle: methylcellulose (MC) 106 % of control | dose: 60.0 mg/kg/injection, schedule: Q01DX Z (oral), vehicle: methylcellulose (MC) 108 % of control | dose: 120.0 mg/kg/injection, schedule: Q01DX Z (ip), vehicle: methylcellulose (MC) 88 % of control | dose: 120.0 mg/kg/injection, schedule: Q01DX Z (oral), vehicle: methylcellulose (MC) 113 % of control | dose: 250.0 mg/kg/injection, schedule: Q01DX Z (oral), vehicle: methylcellulose (MC) 89 % of control

CCC[CH2][Tl]([Br])[CH2]CCC
inactive: [3] 98 % of control | [4] 103 % of control | [5] 106 % of control

O=C(c1ccc(OC(F)F)cc1)N1CCCCC1
inactive: [10] 94 % of control | [12] 93 % of control | [14] 96 % of control

CC1(C)OC(C(O)COC(=O)c2ccc([N+](=O)[O-])cc2)C(C(SCc2ccccc2)SCc2ccccc2)O1 (stereo unspecified)
inactive: [6] 93 % of control | [7] 89 % of control | [8] 95 % of control

COC(=O)CNC(=O)C1CSC(C)(C)N1 (stereo unspecified)
inactive: dose: 100.0 mg/kg/injection, schedule: Q01DX001 (ip), vehicle: steriod suspending solution 100 % of control | dose: 200.0 mg/kg/injection, schedule: Q01DX001 (ip), vehicle: steriod suspending solution 97 % of control | dose: 400.0 mg/kg/injection, schedule: Q01DX001 (ip), vehicle: steriod suspending solution 100 % of control

NCCSc1ccccc1C(=O)O
inactive: [10] 92 % of control | [12] 112 % of control | [14] 102 % of control

O=C(O)c1ccc(N=Nc2ncc[nH]2)cc1
inactive: dose: 6.25 mg/kg/injection, schedule: Q01DX009 (ip), vehicle: saline with Tween-80 92 % of control | dose: 12.5 mg/kg/injection, schedule: Q01DX009 (ip), vehicle: saline with Tween-80 96 % of control | dose: 25.0 mg/kg/injection, schedule: Q01DX009 (ip), vehicle: saline with Tween-80 96 % of control | dose: 50.0 mg/kg/injection, schedule: Q01DX009 (ip), vehicle: saline with Tween-80 87 % of control
